Assay results: the kinase profiling compilation of Christmann-Franck et al. (2016)

Legend:
Experiment in all cases: radiometric filter-binding kinase assay, Kinase HotSpot
Details in all cases: compound 0.5 µM; ATP 10 µM
CDK5 CDK5R1 p25 (human) = CDK5 CDK5R1 p25 (human) (UniProt Q00535+Q15078)
PKN1 (human) = PKN1 (human) (UniProt Q16512)
MATK (human) = MATK (human) (UniProt P42679)
MAP4K4 (human) = MAP4K4 (human) (UniProt O95819)
MAPK3 (human) = MAPK3 (human) (UniProt P27361)
PBK (human) = PBK (human) (UniProt Q96KB5)
NUAK2 (human) = NUAK2 (human) (UniProt Q9H093)
EPHB3 (human) = EPHB3 (human) (UniProt P54753)
PRKCH (human) = PRKCH (human) (UniProt P24723)
STK10 (human) = STK10 (human) (UniProt O94804)
HCK (human) = HCK (human) (UniProt P08631)
FYN (human) = FYN (human) (UniProt P06241)
MELK (human) = MELK (human) (UniProt Q14680)
MARK4 (human) = MARK4 (human) (UniProt Q96L34)
MST4 (human) = MST4 (human) (UniProt Q9P289)
MST4 (human), sequence (Q9P289 whole entry, looked up): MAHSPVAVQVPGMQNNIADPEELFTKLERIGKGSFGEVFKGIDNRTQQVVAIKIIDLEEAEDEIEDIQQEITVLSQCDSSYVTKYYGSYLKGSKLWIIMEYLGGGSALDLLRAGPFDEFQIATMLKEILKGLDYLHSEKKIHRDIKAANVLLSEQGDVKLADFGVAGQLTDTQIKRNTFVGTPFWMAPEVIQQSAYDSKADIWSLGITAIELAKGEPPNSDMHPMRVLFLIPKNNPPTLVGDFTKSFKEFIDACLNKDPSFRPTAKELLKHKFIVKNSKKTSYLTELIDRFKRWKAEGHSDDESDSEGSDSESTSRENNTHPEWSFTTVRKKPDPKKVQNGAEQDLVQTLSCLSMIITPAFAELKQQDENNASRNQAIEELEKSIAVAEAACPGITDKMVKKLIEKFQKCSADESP

DYRK2 (human) = DYRK2 (human) (UniProt Q92630)
DYRK2 (human), sequence (Q92630 whole entry, looked up): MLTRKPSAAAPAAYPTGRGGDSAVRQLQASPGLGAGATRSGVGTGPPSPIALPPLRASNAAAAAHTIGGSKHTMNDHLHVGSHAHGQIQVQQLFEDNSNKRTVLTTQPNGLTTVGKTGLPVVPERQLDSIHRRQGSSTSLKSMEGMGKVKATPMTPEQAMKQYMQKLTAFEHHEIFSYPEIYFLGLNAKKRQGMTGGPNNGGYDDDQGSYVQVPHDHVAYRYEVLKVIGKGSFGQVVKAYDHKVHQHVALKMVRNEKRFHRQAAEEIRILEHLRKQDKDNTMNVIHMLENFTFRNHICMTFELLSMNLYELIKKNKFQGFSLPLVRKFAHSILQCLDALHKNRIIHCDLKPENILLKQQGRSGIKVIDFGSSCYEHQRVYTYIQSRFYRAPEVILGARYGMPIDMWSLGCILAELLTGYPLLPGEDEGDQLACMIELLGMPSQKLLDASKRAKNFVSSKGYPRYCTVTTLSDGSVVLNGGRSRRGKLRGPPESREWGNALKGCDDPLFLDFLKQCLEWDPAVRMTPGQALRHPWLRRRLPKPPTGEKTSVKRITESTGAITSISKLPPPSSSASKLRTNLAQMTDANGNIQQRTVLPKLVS

EPHA5 (human) = EPHA5 (human) (UniProt P54756)
MARK3 (human) = MARK3 (human) (UniProt P27448)
MARK3 (human), sequence (P27448 whole entry, looked up): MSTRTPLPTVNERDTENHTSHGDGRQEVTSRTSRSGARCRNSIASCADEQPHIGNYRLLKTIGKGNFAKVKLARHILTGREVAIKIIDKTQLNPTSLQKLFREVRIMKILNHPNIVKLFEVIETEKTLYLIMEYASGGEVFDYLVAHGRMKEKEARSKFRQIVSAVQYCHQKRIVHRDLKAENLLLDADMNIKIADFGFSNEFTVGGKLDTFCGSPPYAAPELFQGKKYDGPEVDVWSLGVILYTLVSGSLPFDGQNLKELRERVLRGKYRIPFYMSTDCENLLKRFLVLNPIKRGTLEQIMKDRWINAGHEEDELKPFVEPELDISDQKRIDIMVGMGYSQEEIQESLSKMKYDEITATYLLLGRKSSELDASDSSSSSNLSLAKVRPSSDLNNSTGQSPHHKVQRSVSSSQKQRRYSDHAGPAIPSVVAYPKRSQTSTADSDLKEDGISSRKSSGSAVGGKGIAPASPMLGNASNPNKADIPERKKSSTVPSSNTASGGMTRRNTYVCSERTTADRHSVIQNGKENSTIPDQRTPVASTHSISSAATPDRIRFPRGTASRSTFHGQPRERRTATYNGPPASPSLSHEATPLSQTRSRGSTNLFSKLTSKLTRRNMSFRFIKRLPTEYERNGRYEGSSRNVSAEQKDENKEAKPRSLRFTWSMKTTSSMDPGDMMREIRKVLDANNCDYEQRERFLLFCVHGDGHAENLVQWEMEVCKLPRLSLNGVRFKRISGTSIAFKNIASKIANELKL

PRKCD (human) = PRKCD (human) (UniProt Q05655)
STK11 (human) = STK11 (human) (UniProt Q15831)
AKT2 (human) = AKT2 (human) (UniProt P31751)
EPHA7 (human) = EPHA7 (human) (UniProt Q15375)
CDK6 CCND3 (human) = CDK6 CCND3 (human) (UniProt P30281+Q00534)
CSNK1G2 (human) = CSNK1G2 (human) (UniProt P78368)
CSNK1G2 (human), sequence (P78368 whole entry, looked up): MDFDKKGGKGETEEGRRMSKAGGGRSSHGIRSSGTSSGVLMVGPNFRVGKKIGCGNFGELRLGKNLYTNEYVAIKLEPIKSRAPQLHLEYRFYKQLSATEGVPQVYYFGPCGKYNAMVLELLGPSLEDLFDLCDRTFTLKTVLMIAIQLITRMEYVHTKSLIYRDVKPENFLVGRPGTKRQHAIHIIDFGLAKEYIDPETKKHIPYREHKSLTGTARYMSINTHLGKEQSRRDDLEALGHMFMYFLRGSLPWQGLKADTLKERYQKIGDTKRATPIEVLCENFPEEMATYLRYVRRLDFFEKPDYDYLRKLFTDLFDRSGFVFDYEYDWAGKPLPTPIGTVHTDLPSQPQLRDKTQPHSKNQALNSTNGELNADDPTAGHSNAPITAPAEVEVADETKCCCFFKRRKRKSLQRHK

RPS6KA2 KD1 KD2 (human) = RPS6KA2 KD1 KD2 (human) (UniProt Q15349)
MKNK2 (human) = MKNK2 (human) (UniProt Q9HBH9)
HIPK3 (human) = HIPK3 (human) (UniProt Q9H422)
CHEK1 (human) = CHEK1 (human) (UniProt O14757)
PIM1 (human) = PIM1 (human) (UniProt P11309)
PIM1 (human), sequence (P11309 whole entry, looked up): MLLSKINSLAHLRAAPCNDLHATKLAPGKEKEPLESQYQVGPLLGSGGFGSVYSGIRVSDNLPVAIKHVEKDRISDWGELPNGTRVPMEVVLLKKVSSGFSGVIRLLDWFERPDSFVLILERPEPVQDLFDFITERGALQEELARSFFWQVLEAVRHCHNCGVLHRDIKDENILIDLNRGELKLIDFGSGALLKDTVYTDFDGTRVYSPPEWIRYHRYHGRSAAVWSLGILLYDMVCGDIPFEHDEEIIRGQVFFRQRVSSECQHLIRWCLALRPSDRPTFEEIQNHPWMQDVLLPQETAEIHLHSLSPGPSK

RPS6KA1 KD1 KD2 (human) = RPS6KA1 KD1 KD2 (human) (UniProt Q15418)
PNCK (human) = PNCK (human) (UniProt Q6P2M8)
PNCK (human), sequence (Q6P2M8 whole entry, looked up): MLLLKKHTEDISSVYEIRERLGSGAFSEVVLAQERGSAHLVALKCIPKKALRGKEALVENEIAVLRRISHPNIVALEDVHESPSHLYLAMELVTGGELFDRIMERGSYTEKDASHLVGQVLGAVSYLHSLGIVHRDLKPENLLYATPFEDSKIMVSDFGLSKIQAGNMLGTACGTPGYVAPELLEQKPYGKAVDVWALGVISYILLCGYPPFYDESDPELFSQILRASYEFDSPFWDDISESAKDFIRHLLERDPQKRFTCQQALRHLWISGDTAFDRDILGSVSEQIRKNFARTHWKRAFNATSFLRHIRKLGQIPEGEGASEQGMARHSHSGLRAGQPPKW

[1] = system: MKNK1 (human), Q9BUB5 [T385D; 165-205 del]
VRK1 (human) = VRK1 (human) (UniProt Q99986)
[2] = biological target: TYK2 JH1 catalytic (human) (UniProt P29597)
STK17A (human) = STK17A (human) (UniProt Q9UEE5)
MET (human) = MET (human) (UniProt P08581)
MAP3K8 (human) = MAP3K8 (human) (UniProt P41279)
TSSK2 (human) = TSSK2 (human) (UniProt Q96PF2)
PRKX (human) = PRKX (human) (UniProt P51817)
ROCK1 (human) = ROCK1 (human) (UniProt Q13464)
BMX (human) = BMX (human) (UniProt P51813)
NEK11 (human) = NEK11 (human) (UniProt Q8NG66)
NEK11 (human), sequence (Q8NG66 whole entry, looked up): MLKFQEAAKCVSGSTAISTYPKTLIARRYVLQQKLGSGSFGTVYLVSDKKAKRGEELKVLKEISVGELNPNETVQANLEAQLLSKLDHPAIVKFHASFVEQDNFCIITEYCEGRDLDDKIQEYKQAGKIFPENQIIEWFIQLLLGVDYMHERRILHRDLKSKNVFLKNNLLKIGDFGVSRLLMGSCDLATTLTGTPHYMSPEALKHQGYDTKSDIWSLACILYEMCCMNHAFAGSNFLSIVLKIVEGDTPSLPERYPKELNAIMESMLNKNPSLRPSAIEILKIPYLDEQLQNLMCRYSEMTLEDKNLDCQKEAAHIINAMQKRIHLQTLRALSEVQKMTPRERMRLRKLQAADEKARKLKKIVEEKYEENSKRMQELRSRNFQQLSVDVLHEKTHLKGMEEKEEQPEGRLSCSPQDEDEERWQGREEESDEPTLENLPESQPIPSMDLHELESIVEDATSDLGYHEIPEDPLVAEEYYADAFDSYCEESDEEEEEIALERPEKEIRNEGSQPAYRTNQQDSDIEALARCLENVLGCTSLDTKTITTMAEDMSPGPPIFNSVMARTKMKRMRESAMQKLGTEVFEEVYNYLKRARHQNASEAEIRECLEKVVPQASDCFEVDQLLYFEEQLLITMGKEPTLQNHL

PKN1 (human), sequence (Q16512 whole entry, looked up): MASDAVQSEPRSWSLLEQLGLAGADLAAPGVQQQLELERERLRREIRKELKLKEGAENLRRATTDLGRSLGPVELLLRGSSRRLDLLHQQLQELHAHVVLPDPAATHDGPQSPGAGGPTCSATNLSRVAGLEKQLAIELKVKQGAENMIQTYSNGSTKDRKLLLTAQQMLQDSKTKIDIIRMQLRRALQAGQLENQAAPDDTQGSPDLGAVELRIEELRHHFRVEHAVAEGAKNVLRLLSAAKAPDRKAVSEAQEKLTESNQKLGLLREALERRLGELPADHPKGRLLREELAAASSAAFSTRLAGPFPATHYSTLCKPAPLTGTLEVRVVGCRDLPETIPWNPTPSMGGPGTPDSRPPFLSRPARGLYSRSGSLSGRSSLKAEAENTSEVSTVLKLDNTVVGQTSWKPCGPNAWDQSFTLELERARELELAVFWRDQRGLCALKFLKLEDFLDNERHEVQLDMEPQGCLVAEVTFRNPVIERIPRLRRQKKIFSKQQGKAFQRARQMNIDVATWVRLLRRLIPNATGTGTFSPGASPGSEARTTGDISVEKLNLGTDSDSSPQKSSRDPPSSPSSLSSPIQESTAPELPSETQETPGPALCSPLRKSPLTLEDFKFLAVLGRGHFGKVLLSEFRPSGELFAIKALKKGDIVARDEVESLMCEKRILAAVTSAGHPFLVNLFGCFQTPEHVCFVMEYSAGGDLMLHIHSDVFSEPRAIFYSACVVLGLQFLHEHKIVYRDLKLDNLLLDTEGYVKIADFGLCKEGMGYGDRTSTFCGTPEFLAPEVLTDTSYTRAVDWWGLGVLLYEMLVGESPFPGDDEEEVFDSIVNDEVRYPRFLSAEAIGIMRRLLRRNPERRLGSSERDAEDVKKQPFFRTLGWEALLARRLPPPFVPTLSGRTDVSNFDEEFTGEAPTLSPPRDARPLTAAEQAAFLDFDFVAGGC
MATK (human), sequence (P42679 whole entry, looked up): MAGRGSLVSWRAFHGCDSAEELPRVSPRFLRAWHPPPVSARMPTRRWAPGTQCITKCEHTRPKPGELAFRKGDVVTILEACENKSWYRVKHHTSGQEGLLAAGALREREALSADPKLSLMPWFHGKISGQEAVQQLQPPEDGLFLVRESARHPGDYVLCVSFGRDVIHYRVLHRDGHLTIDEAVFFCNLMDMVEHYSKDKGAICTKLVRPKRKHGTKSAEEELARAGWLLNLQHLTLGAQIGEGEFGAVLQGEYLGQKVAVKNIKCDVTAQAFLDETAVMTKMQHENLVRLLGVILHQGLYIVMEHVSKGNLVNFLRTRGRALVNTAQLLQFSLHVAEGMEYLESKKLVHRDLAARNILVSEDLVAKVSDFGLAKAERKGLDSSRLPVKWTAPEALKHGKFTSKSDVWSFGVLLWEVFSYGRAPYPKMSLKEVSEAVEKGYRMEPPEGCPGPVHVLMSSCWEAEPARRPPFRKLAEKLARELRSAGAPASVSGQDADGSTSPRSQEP

## COc1cc(Nc2c(C#N)cnc3cc(OCCCN4CCN(C)CC4)c(OC)cc23)c(Cl)cc1Cl
CDK5 CDK5R1 p25 (human)
  residual activity: 95.9%
PKN1 (human)
  residual activity: 74.2%
MATK (human)
  residual activity: 140%
MAP4K4 (human)
  residual activity: 1.03%
MAPK3 (human)
  residual activity: 98.9%
PBK (human)
  residual activity: 104%
NUAK2 (human)
  residual activity: 59.5%
EPHB3 (human)
  residual activity: 49.4%
PRKCH (human)
  residual activity: 102%
STK10 (human)
  residual activity: 12.6%
HCK (human)
  residual activity: 11.9%
FYN (human)
  residual activity: 29.4%
MELK (human)
  residual activity: 25.8%
MARK4 (human)
  residual activity: 60.6%
MST4 (human)
  residual activity: 5.9%
DYRK2 (human)
  residual activity: 104%
EPHA5 (human)
  residual activity: 37.1%
MARK3 (human)
  residual activity: 65.4%
PRKCD (human)
  residual activity: 40.3%
STK11 (human)
  residual activity: 98.1%
AKT2 (human)
  residual activity: 104%
EPHA7 (human)
  residual activity: 77.2%
CDK6 CCND3 (human)
  residual activity: 122%
CSNK1G2 (human)
  residual activity: 98.3%
RPS6KA2 KD1 KD2 (human)
  residual activity: 44.2%
MKNK2 (human)
  residual activity: 98.7%
HIPK3 (human)
  residual activity: 93.5%
CHEK1 (human)
  residual activity: 38.9%
PIM1 (human)
  residual activity: 99.2%
RPS6KA1 KD1 KD2 (human)
  residual activity: 80.4%
PNCK (human)
  residual activity: 109%
[1]
  residual activity: 96.9%
VRK1 (human)
  residual activity: 100%
[2]
  residual activity: 98.1%
STK17A (human)
  residual activity: 107%
MET (human)
  residual activity: 84.5%
MAP3K8 (human)
  residual activity: 101%
TSSK2 (human)
  residual activity: 83.9%
PRKX (human)
  residual activity: 110%
ROCK1 (human)
  residual activity: 105%

## CO[C@@H]1[C@H](N(C)C(=O)c2ccccc2)C[C@H]2O[C@]1(C)n1c3ccccc3c3c4c(c5c6ccccc6n2c5c31)C(=O)NC4
CDK5 CDK5R1 p25 (human)
  residual activity: 73.3%
PKN1 (human)
  residual activity: 1.37%
MATK (human)
  residual activity: 113%
MAPK3 (human)
  residual activity: 88.4%
NUAK2 (human)
  residual activity: 26.2%
EPHB3 (human)
  residual activity: 90.5%
PRKCH (human)
  residual activity: 20.4%
STK10 (human)
  residual activity: 19.3%
HCK (human)
  residual activity: 14.9%
FYN (human)
  residual activity: 34%
MELK (human)
  residual activity: 4.87%
MARK4 (human)
  residual activity: 3.16%
MST4 (human)
  residual activity: 23.8%
DYRK2 (human)
  residual activity: 108%
MARK3 (human)
  residual activity: 4.76%
PRKCD (human)
  residual activity: 10.9%
EPHA7 (human)
  residual activity: 87.2%
CSNK1G2 (human)
  residual activity: 98.3%
RPS6KA2 KD1 KD2 (human)
  residual activity: 3.06%
HIPK3 (human)
  residual activity: 93.3%
CHEK1 (human)
  residual activity: 53%
PIM1 (human)
  residual activity: 41.2%
RPS6KA1 KD1 KD2 (human)
  residual activity: 0.432%
PNCK (human)
  residual activity: 92.9%
[1]
  residual activity: 92.7%
VRK1 (human)
  residual activity: 90.8%
[2]
  residual activity: 8.26%
STK17A (human)
  residual activity: 62.9%
BMX (human)
  residual activity: 32%
MET (human)
  residual activity: 89.4%
MAP3K8 (human)
  residual activity: 99.6%
TSSK2 (human)
  residual activity: 89.1%
PRKX (human)
  residual activity: 55.4%
ROCK1 (human)
  residual activity: 85.3%

## C[C@@H]1CCN(C(=O)CC#N)C[C@@H]1N(C)c1ncnc2[nH]ccc12
CDK5 CDK5R1 p25 (human)
  residual activity: 100%
PKN1 (human)
  residual activity: 16.5%
MATK (human)
  residual activity: 66.9%
MAP4K4 (human)
  residual activity: 101%
MAPK3 (human)
  residual activity: 98.6%
PBK (human)
  residual activity: 102%
NUAK2 (human)
  residual activity: 80.3%
EPHB3 (human)
  residual activity: 54.9%
PRKCH (human)
  residual activity: 100%
STK10 (human)
  residual activity: 92.9%
HCK (human)
  residual activity: 88.3%
MELK (human)
  residual activity: 79.4%
MARK4 (human)
  residual activity: 81.7%
MST4 (human)
  residual activity: 105%
DYRK2 (human)
  residual activity: 112%
EPHA5 (human)
  residual activity: 99.9%
MARK3 (human)
  residual activity: 78.6%
PRKCD (human)
  residual activity: 75.3%
STK11 (human)
  residual activity: 104%
AKT2 (human)
  residual activity: 98%
EPHA7 (human)
  residual activity: 89%
CDK6 CCND3 (human)
  residual activity: 110%
CSNK1G2 (human)
  residual activity: 95.4%
RPS6KA2 KD1 KD2 (human)
  residual activity: 89.7%
MKNK2 (human)
  residual activity: 97.4%
HIPK3 (human)
  residual activity: 100%
CHEK1 (human)
  residual activity: 94.1%
PIM1 (human)
  residual activity: 102%
RPS6KA1 KD1 KD2 (human)
  residual activity: 90.9%
PNCK (human)
  residual activity: 104%
[1]
  residual activity: 89.9%
VRK1 (human)
  residual activity: 100%
[2]
  residual activity: 12%
STK17A (human)
  residual activity: 106%
BMX (human)
  residual activity: 111%
NEK11 (human)
  residual activity: 91.7%
MET (human)
  residual activity: 86.7%
MAP3K8 (human)
  residual activity: 93.5%
TSSK2 (human)
  residual activity: 87.9%
PRKX (human)
  residual activity: 110%
ROCK1 (human)
  residual activity: 90.1%

## NC(=O)c1cccc(-c2cc(Nc3ccc(OC(F)(F)F)cc3)ncn2)c1
CDK5 CDK5R1 p25 (human)
  residual activity: 80.1%
PKN1 (human)
  residual activity: 98.9%
MATK (human)
  residual activity: 100%
MAP4K4 (human)
  residual activity: 104%
MAPK3 (human)
  residual activity: 94.5%
PBK (human)
  residual activity: 72.2%
NUAK2 (human)
  residual activity: 87.8%
EPHB3 (human)
  residual activity: 98%
PRKCH (human)
  residual activity: 98.4%
STK10 (human)
  residual activity: 101%
HCK (human)
  residual activity: 92.9%
MELK (human)
  residual activity: 94.5%
MARK4 (human)
  residual activity: 98.1%
MST4 (human)
  residual activity: 94.7%
DYRK2 (human)
  residual activity: 78.7%
EPHA5 (human)
  residual activity: 103%
MARK3 (human)
  residual activity: 100%
PRKCD (human)
  residual activity: 83.1%
STK11 (human)
  residual activity: 97.2%
AKT2 (human)
  residual activity: 105%
EPHA7 (human)
  residual activity: 99.1%
CDK6 CCND3 (human)
  residual activity: 96.2%
CSNK1G2 (human)
  residual activity: 89.5%
RPS6KA2 KD1 KD2 (human)
  residual activity: 96.2%
MKNK2 (human)
  residual activity: 95.4%
HIPK3 (human)
  residual activity: 104%
CHEK1 (human)
  residual activity: 94.2%
PIM1 (human)
  residual activity: 101%
RPS6KA1 KD1 KD2 (human)
  residual activity: 92.7%
PNCK (human)
  residual activity: 109%
[1]
  residual activity: 95.9%
VRK1 (human)
  residual activity: 97.9%
[2]
  residual activity: 82.7%
STK17A (human)
  residual activity: 98.7%
BMX (human)
  residual activity: 107%
NEK11 (human)
  residual activity: 98.3%
MET (human)
  residual activity: 135%
MAP3K8 (human)
  residual activity: 96.8%
TSSK2 (human)
  residual activity: 97%
PRKX (human)
  residual activity: 105%
ROCK1 (human)
  residual activity: 96.8%

## N#C/C(=C\c1ccc(O)c(O)c1)C(=O)NCc1ccccc1
CDK5 CDK5R1 p25 (human)
  residual activity: 101%
PKN1 (human)
  residual activity: 97.6%
MATK (human)
  residual activity: 86.3%
MAPK3 (human)
  residual activity: 106%
PBK (human)
  residual activity: 84.2%
NUAK2 (human)
  residual activity: 131%
EPHB3 (human)
  residual activity: 101%
PRKCH (human)
  residual activity: 95.5%
STK10 (human)
  residual activity: 89.6%
HCK (human)
  residual activity: 97.5%
FYN (human)
  residual activity: 116%
MELK (human)
  residual activity: 100%
MARK4 (human)
  residual activity: 104%
MST4 (human)
  residual activity: 103%
DYRK2 (human)
  residual activity: 103%
EPHA5 (human)
  residual activity: 103%
MARK3 (human)
  residual activity: 97.5%
PRKCD (human)
  residual activity: 91.1%
STK11 (human)
  residual activity: 97.4%
AKT2 (human)
  residual activity: 98.4%
EPHA7 (human)
  residual activity: 89.7%
CDK6 CCND3 (human)
  residual activity: 104%
CSNK1G2 (human)
  residual activity: 106%
RPS6KA2 KD1 KD2 (human)
  residual activity: 94.2%
MKNK2 (human)
  residual activity: 87.9%
HIPK3 (human)
  residual activity: 96.6%
CHEK1 (human)
  residual activity: 89.2%
PIM1 (human)
  residual activity: 108%
RPS6KA1 KD1 KD2 (human)
  residual activity: 102%
PNCK (human)
  residual activity: 97.1%
[1]
  residual activity: 77.8%
VRK1 (human)
  residual activity: 97%
[2]
  residual activity: 97.1%
STK17A (human)
  residual activity: 98.8%
BMX (human)
  residual activity: 88.8%
NEK11 (human)
  residual activity: 95.4%
MET (human)
  residual activity: 98.1%
MAP3K8 (human)
  residual activity: 98.1%
TSSK2 (human)
  residual activity: 90%
PRKX (human)
  residual activity: 99.6%
ROCK1 (human)
  residual activity: 99.7%
